Data from patent US20240150377A1, “MODULATORS OF CYSTIC FIBROSIS TRANSMEMBRANE CONDUCTANCE REGULATOR” (VERTEX PHARMACEUTICALS INCORPORATED, priority 2020, published 2024).

Molecular target: T1, CFTR (Homo sapiens, UniProt P13569, DEL508-508)
T1 construct: endogenous in cells; host or cells: primary human bronchial epithelial cells from CF subjects (F508del/MF-HBE), differentiated at air-liquid interface
Assay: HBE2 assay: Ussing chamber assay of CFTR-mediated short-circuit currents
Format: cell-based
Conditions: F508del/MF-HBE cells, with 44 nM potentiator, 18-24 hours, 20% human serum; for Emax: read-out: HBE2 Max activity (%)
Experimental: Ussing Chamber Assay of CFTR-Mediated Short-Circuit Currents
After four days the apical media was removed, and the cells were grown at an air liquid interface for >14 days prior to use.
To isolate the CFTR-mediated short-circuit (ISC) current, F508del/MF-HBE grown on Costar® Snapwell™ cell culture inserts were mounted in an Ussing chamber and the transepithelial ISC was measured under voltage-clamp recording conditions (Vhold=0 mV) at 37° C. […] The CFTR-mediated ISC (μA/cm^2) for each condition was determined from the peak forskolin response to the steady-state current following inhibition.
Identification of Corrector Compounds
The activity of the CFTR corrector compounds on the CFTR-mediated ISC was determined in Ussing chamber studies as described above.

T1 sequence (P13569 with tags, fused parts or gaps DEL508-508): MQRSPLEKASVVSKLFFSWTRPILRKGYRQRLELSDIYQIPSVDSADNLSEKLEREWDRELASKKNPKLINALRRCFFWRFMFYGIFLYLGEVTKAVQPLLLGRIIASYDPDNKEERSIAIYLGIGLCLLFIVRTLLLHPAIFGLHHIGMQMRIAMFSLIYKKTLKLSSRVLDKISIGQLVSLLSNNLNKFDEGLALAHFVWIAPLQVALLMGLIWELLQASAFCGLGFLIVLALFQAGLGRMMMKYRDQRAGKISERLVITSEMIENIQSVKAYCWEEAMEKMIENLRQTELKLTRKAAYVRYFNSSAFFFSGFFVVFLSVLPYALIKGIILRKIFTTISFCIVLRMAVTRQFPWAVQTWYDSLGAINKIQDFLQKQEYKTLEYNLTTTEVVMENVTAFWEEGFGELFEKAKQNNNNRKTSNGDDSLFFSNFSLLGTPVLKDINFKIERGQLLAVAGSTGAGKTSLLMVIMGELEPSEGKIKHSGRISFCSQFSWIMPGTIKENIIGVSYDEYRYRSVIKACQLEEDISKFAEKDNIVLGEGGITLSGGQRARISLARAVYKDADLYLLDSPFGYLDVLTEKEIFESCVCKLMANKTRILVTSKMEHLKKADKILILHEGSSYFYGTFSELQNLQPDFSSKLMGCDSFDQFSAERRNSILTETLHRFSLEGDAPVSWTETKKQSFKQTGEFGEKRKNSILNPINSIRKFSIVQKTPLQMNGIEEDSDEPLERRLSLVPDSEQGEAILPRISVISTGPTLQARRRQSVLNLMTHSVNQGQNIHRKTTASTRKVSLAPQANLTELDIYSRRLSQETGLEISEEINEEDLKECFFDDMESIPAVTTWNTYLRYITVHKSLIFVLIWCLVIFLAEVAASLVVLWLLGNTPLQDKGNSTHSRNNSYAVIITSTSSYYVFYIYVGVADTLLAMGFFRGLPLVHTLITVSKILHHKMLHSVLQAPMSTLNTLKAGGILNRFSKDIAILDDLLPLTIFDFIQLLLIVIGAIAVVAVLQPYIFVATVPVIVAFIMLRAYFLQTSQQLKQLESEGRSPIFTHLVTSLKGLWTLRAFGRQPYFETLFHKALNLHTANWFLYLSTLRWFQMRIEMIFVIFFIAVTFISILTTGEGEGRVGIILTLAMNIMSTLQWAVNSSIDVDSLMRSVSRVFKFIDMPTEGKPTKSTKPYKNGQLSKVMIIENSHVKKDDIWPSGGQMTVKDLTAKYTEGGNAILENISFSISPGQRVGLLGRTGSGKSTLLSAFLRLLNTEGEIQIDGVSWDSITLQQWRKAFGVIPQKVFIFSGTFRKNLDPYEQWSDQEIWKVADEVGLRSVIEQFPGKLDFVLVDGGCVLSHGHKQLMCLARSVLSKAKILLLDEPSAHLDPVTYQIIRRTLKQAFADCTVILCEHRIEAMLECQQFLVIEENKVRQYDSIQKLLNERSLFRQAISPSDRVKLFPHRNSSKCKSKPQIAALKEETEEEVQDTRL

SMILES	HBE2 Activity at 3 μM (%) (3 μM)	HBE2 Activity at 3 μM (%) (3 μM corrector)	also measured
Cc1cccc(C)c1-c1cc2nc(n1)NS(=O)(=O)c1cccc(c1)C(=O)N(Cc1cncc(N3CC4OCC[C@@H]43)n1)[C@H](CC(C)(C)C)CO2 (stereo in doubt) [Compound 1629]	+++ (+++ is >60+)		
CO[C@H]1C[C@H](CN(C)c2cncc(CN3C(=O)c4cccc(c4)S(=O)(=O)Nc4nc(cc(-c5c(C)cccc5C)n4)OC[C@H]3CC(C)(C)C)n2)C1 (stereo in doubt) [Compound 1632]	+++ (+++ is >60+)		EC50: < 1000 nM; Emax: > 60%
CO[C@H](C)CN(C)c1cncc(CN2C(=O)c3cccc(c3)S(=O)(=O)Nc3nc(cc(-c4c(C)cccc4C)n3)OC[C@H]2CC(C)(C)C)n1 (stereo in doubt) [Compound 1634]	+++ (+++ is >60+)		
Cc1cccc(C)c1-c1cc2nc(n1)NS(=O)(=O)c1cccc(c1)C(=O)N(Cc1cncc(N3CC[C@H]3C3CCC3)n1)[C@H](CC(C)(C)C)CO2 (stereo in doubt) [Compound 1637]	+++ (+++ is >60+)		
Cc1cccc(C)c1-c1cc2nc(n1)NS(=O)(=O)c1cccc(c1)C(=O)N(Cc1cncc(N3CC[C@H]4C3CC(=O)N4C)n1)[C@H](CC(C)(C)C)CO2 (stereo in doubt) [Compound 1640]	+++ (+++ is >60+)		
Cc1cccc(C)c1-c1cc2nc(n1)NS(=O)(=O)c1cccc(c1)C(=O)N(Cc1cncc(N3CC[C@@H]4CN(C(=O)OC(C)(C)C)CC43)n1)[C@H](CC(C)(C)C)CO2 (stereo in doubt) [Compound 1649]	+++ (+++ is >60+)		
CC(=O)N1CC2[C@@H](CCN2c2cncc(CN3C(=O)c4cccc(c4)S(=O)(=O)Nc4nc(cc(-c5c(C)cccc5C)n4)OC[C@H]3CC(C)(C)C)n2)C1 (stereo in doubt) [Compound 1663]	+++ (+++ is >60+)		
Cc1cccc(C)c1-c1cc2nc(n1)NS(=O)(=O)c1cccc(c1)C(=O)N(Cc1cncc(N3CC[C@H]4CN(C(=O)OC(C)C)CC43)n1)[C@H](CC(C)(C)C)CO2 (stereo in doubt) [Compound 1664]	+++ (+++ is >60+)		
CC[C@@H](C)N(C)c1cncc(CN2C(=O)c3cccc(c3)S(=O)(=O)Nc3nc(cc(-c4c(C)cccc4C)n3)OC[C@H]2CC(C)(C)C)n1 (stereo in doubt) [Compound 1672]	+++ (+++ is >60+)		EC50: < 1000 nM; Emax: > 60%
Cc1cccc(C)c1-c1cc2nc(n1)NS(=O)(=O)c1cccc(c1)C(=O)N(Cc1cncc(N3C(=O)CCC3C(C)C)n1)[C@H](CC(C)(C)C)CO2 (stereo in doubt) [Compound 1675]	+++ (+++ is >60+)		
Cc1cccc(C)c1-c1cc2nc(n1)NS(=O)(=O)c1cccc(c1)C(=O)N(Cc1cncc(N(C)[C@@H]3CC4COCC43)n1)[C@H](CC(C)(C)C)CO2 (stereo in doubt) [Compound 1676]	+++ (+++ is >60+)		
Cc1cccc(C)c1-c1cc2nc(n1)NS(=O)(=O)c1cccc(c1)C(=O)N(Cc1cncc(N(C)[C@@H]3C[C@H]4COC[C@H]43)n1)[C@H](CC(C)(C)C)CO2 (stereo in doubt) [Compound 1677]	+++ (+++ is >60+)		
Cc1cccc(C)c1-c1cc2nc(n1)NS(=O)(=O)c1cccc(c1)C(=O)N(Cc1cncc(N3CCC[C@H]4COC[C@H]43)n1)[C@H](CC(C)(C)C)CO2 (stereo in doubt) [Compound 1679]	+++ (+++ is >60+)		
Cc1cccc(C)c1-c1cc2nc(n1)NS(=O)(=O)c1cccc(c1)C(=O)N(Cc1cncc(N3CCC(C)(C)[C@H]3C)n1)[C@H](CC(C)(C)C)CO2 (stereo in doubt) [Compound 1723]		+++ (+++ is >60+)	
Cc1cccc(C)c1-c1cc2nc(n1)NS(=O)(=O)c1cccc(c1)C(=O)N(Cc1cncc(N(C)C3CCC3)n1)[C@@H]1CN(CC(C)(C)C)CC1O2 (stereo in doubt) [Compound 1740]		++ (++ is 30-60%)	
Cc1cccc(C)c1-c1cc2nc(n1)NS(=O)(=O)c1cccc(c1)C(=O)N(Cc1cncc(N3CCC[C@H]4CC[C@H]43)n1)[C@H](CCC(C)C)CO2 (stereo in doubt) [Compound 1746]		+++ (+++ is >60+)	
Cc1cccc(C)c1-c1cc2nc(n1)NS(=O)(=O)c1cccc(c1)C(=O)N(Cc1cncc(N3CC(C)(C)[C@H]3C(C)C)n1)[C@H](CC(C)(C)C)CO2 (stereo in doubt) [Compound 1751]		+++ (+++ is >60+)	
Cc1cccc(C)c1-c1cc2nc(n1)NS(=O)(=O)c1cccc(c1)C(=O)N(Cc1cncc(N3CCO[C@@H](C)[C@H]3C)n1)[C@H](CC(C)(C)C)CO2 (stereo in doubt) [Compound 1760]		+++ (+++ is >60+)	
Cc1cccc(C)c1-c1cc2nc(n1)NS(=O)(=O)c1cccc(c1)C(=O)N(Cc1cncc(N(C)C3CCC3)n1)[C@@H]1CCN(CC(C)(C)C)CC1O2 (stereo in doubt) [Compound 1765]		++ (++ is 30-60%)	

SMILES	HBE2 Activity at 3 μM (%) (3 μM)	HBE2 Activity at 3 μM (%) (3 μM corrector)	also measured
Cc1cccc(C)c1-c1cc2nc(n1)NS(=O)(=O)c1cccc(c1)C(=O)N(Cc1cncc(N(C)[C@@H]3CC[C@H]3C)n1)[C@H](CC(C)(C)C)CO2 (stereo in doubt) [Compound 1772]		+++ (+++ is >60+)	
Cc1cccc(C)c1-c1cc2nc(n1)NS(=O)(=O)c1cccc(c1)C(=O)N(Cc1cncc(N(C)[C@H]3CC[C@@H]3C)n1)[C@H](CC(C)(C)C)CO2 (stereo in doubt) [Compound 1773]		+++ (+++ is >60+)	
Cc1cccc(C)c1-c1cc2nc(n1)NS(=O)(=O)c1cccc(c1)C(=O)N(Cc1cncc(N3CCCC4CCC43)n1)[C@H](CCC(C)(C)C)CO2 (stereo in doubt) [Compound 1781]		+++ (+++ is >60+)	
Cc1cccc(C)c1-c1cc2nc(n1)NS(=O)(=O)c1cccc(c1)C(=O)N(Cc1cncc(N3CCCC4CCC43)n1)[C@H](CCC(C)(C)C)CO2 (stereo in doubt) [Compound 1782]		+++ (+++ is >60+)	
Cc1cccc(C)c1-c1cc2nc(n1)NS(=O)(=O)c1cccc(c1)C(=O)N(Cc1cncc(N3C[C@H]4CCCCC43)n1)[C@H](CC(C)(C)C)CO2 (stereo in doubt) [Compound 1799]		+++ (+++ is >60+)	
Cc1cccc(C)c1-c1cc2nc(n1)NS(=O)(=O)c1cccc(c1)C(=O)N(Cc1cncc(N3CCCC4CCC43)n1)[C@H](CC1CC1)CO2 (stereo in doubt) [Compound 1838]		+++ (+++ is >60+)	
Cc1cccc(C)c1-c1cc2nc(n1)NS(=O)(=O)c1cccc(c1)C(=O)N(Cc1cncc(N3CC[C@@H]3C)n1)[C@H](CC1CCCC1)CO2 (stereo in doubt) [Compound 1843]		+++ (+++ is >60+)	
Cc1cccc(C)c1-c1cc2nc(n1)NS(=O)(=O)c1cccc(c1)C(=O)N(Cc1cncc(N3CC[C@H]4CC[C@H]43)n1)[C@H](CCC(C)(C)C)CO2 (stereo in doubt) [Compound 1855]		+++ (+++ is >60+)	
COC[C@H]1CCCCN1c1cncc(CN2C(=O)c3cccc(c3)S(=O)(=O)Nc3nc(cc(-c4c(C)cccc4C)n3)OC[C@H]2CCC(C)(C)C)n1 (stereo in doubt) [Compound 1856]		+++ (+++ is >60+)	
Cc1cccc(C)c1-c1cc2nc(n1)NS(=O)(=O)c1cccc(c1)C(=O)N(Cc1cncc(C3CCCCO3)n1)[C@H](CCC(C)(C)C)CO2 (stereo in doubt) [Compound 1880]		+++ (+++ is >60+)	
Cc1cccc(C)c1-c1cc2nc(n1)NS(=O)(=O)c1cccc(c1)C(=O)N(Cc1cncc(C3CCCCO3)n1)[C@H](CCC(C)(C)C)CO2 (stereo in doubt) [Compound 1881]		+++ (+++ is >60+)	
Cc1cccc(C)c1-c1cc2nc(n1)NS(=O)(=O)c1cccc(c1)C(=O)N(Cc1cncc(N3CC[C@@H]3C(C)C)n1)[C@H](CC1CCCCC1)CO2 (stereo in doubt) [Compound 1887]		+++ (+++ is >60+)	
CC[C@H]1CCCN1c1cncc(CN2C(=O)c3cccc(c3)S(=O)(=O)Nc3nc(cc(-c4c(C)cccc4C)n3)OC[C@H]2COC2CC2)n1 (stereo in doubt) [Compound 1890]		+++ (+++ is >60+)	
Cc1cccc(C)c1-c1cc2nc(n1)NS(=O)(=O)c1cccc(c1)C(=O)N(Cc1cncc(N3CCC[C@@H]3C3CC3)n1)[C@H](COC1CC1)CO2 (stereo in doubt) [Compound 1891]		+++ (+++ is >60+)	
Cc1cccc(C)c1-c1cc2nc(n1)NS(=O)(=O)c1cccc(c1)C(=O)N(Cc1cncc(N3CCC[C@@H]3C)n1)[C@H](COC1CC1)CO2 (stereo in doubt) [Compound 1892]		+++ (+++ is >60+)	
COCC1CCN1c1cncc(CN2C(=O)c3cccc(c3)S(=O)(=O)Nc3nc(cc(-c4c(C)cccc4C)n3)OC[C@H]2COC2CC2)n1 (stereo in doubt) [Compound 1894]		+++ (+++ is >60+)	
Cc1cccc(C)c1-c1cc2nc(n1)NS(=O)(=O)c1cccc(c1)C(=O)N(Cc1cncc(N(C)C3CCC3)n1)[C@H](C1CC(C)(C)C1)CO2 (stereo in doubt) [Compound 1895]		++ (++ is 30-60%)	
Cc1cccc(C)c1-c1cc2nc(n1)NS(=O)(=O)c1cccc(c1)C(=O)N(Cc1cncc(N(C)C3CCC3)n1)[C@H](C1CC(C)(C)C1)CO2 (stereo in doubt) [Compound 1896]		+++ (+++ is >60+)	
